Data published in US20190038624A1 (priority 2017, published 2019).
Like-named read-outs stand apart in the source and are kept apart here.

System: patients with probable MSA
Type: in vivo, human
Conditions: average of five patients, oral 200 mg daily
Procedure: Five patients fulfilled the consensus criteria for “probable MSA” and received oral Nilotinib 200 mg daily for 24 weeks. Disease progression was monitored every 4 weeks by measuring the patient's motor and non-motor symptoms with the Unified Multiple System Atrophy Rating Scale (UMSARS). Mini Mental State Examination (MMSE) was used to screen for cognitive impairment. […] However, these AEs resolved with continued administration of the drug. […] Furthermore, there was a significant decline of 6.8 and 2.2 points in the UMSARS and UMSARS-II, respectively, compared to baseline (see FIG. 2). MMSE results were normal throughout treatment.

Q: How did the “UMSARS, Average” value (Week 4) turn out when `Cc1cn(-c2cc(NC(=O)c3ccc(C)c(Nc4nccc(-c5cccnc5)n4)c3)cc(C(F)(F)F)c2)cn1` [Nilotinib] was run?
A: 52.6 points

Q: What about the “UMSARS-II, Average” value (Week 4) of the same compound?
A: 22.2 points

Q: And the “UMSARS, Average” value (Week 8)?
A: 52.4 points

Q: And the “UMSARS-II, Average” value (Week 8)?
A: 22.2 points

Q: What about the “UMSARS, Average” value (Week 12) of the same compound?
A: 50.8 points

Q: And the “UMSARS-II, Average” value (Week 12)?
A: 22 points

Q: And the “UMSARS, Average” value (Week 16)?
A: 49.4 points

Q: And the “UMSARS-II, Average” value (Week 16)?
A: 21.6 points

Q: And the “UMSARS, Average” value (Week 20)?
A: 47.8 points

Q: What about the “UMSARS-II, Average” value (Week 20) of the same compound?
A: 21.2 points

Q: What about the “UMSARS, Average” value (Week 24) of the same compound?
A: 46.6 points

Q: What about the “UMSARS-II, Average” value (Week 24) of the same compound?
A: 20.6 points
